{"source": "patent US20060217405A1", "about": "“Interstitial cystitis treatment” (Indevus Pharmaceuticals, Inc., priority 2005, published 2006)", "key": {"[1]": {"system": "interstitial cystitis patients", "conditions": "bladder instillation; cited from earlier work"}, "[2]": {"system": "animals", "conditions": "animal studies; cited from earlier work"}, "[3]": {"system": "bladder afferent nerves", "assay": "Intravesical trospium and carbachol experiments", "format": "in vivo", "conditions": "for direct effect on interstitial cystitis: trospium at low dose", "text": "The action of trospium is unique because it has selective activity on the bladder urothelium and bladder afferent nerves. The local trospium bladder effect is on the afferent nerve rather than bladder smooth muscle. The effect of intravesical administered trospium was not blocked by pre treatment of capsaicin or resiniferatoxin. This indicates the afferent nerve effect is that of A-delta and not C-fibers."}, "[4]": {"system": "interstitial cystitis patients", "conditions": "cited from earlier work"}, "[5]": {"system": "human subject", "assay": "Intravesical instillation of trospium chloride in human female subjects", "format": "in vivo", "conditions": "0.5 mcg/ml twice daily intravesical", "experimental": "A human subject, and weighing approximately 70 kg, presents with a sense of urgency and frequency to urinate, although they are not incontinent. The subject experiences pain and other pelvic discomfort, however, while attempting to urinate. Trospium chloride at a concentration of 0.5 mcg/ml is administered twice daily by intravesical instillation to the subject for a total dose of 2.0 mg trospium chloride per day. The dosing regimen is continued for six (6) weeks.\nA human subject, and weighing approximately 60 kg, presents with incontinence. Trospium chloride at a concentration of 0.5 mcg/ml is administered twice daily by intravesical instillation to the subject for a total dose of 1.6 mg trospium chloride per day. The dosing regimen is continued for eight (8) months."}, "[6]": {"conditions": "cited from earlier work"}, "[7]": {"system": "patients", "assay": "Intravesicular instillation of trospium chloride in patients", "format": "in vivo, human", "text": "Trospium chloride is a quaternary ammonium compound that concentrates in the urine primarily unchanged and is believed to have local antispasmodic activity. […] Therefore the use of trospium, especially by intravesicular instillation, is a novel treatment for interstitial cystitis with the very low potential for systemic side effects."}, "[8]": {"system": "female SD rats", "assay": "Cystometrogram (CMG) in anesthetized rats after intravesical instillation", "format": "in vivo, rat", "conditions": "0.5 mcg/ml, approx. 5 ml intravesical, 10-30 minutes, urethane anesthesia", "experimental": "Baseline cystometrogram (CMG) is measured in a group of 6 female SD rats (250 grams). The rats are anesthetized utilizing urethane anesthesia at a rate of 1.2 g/kg. Trospium chloride at a concentration of 0.5 mcg/ml is administered by intravesical instillation. Approximately, 5 ml are instilled. The trospium solution is maintained in the rat bladder for a period of 10-30 minutes. At the end of that period the solution is expelled and the CMG measured."}}, "data": [{"compound": "C[S+](C)[O-]", "note": "[DMSO, dimethyl sulfoxide]", "values": [{"measurement": "average duration of significant pain relief", "setting": "[1]", "result": "about 10 months"}, {"measurement": "duration of garlic-like taste and odor on the breath and skin after treatment", "setting": "[1]", "result": "up to 72 hours"}, {"measurement": "patients experiencing significant pain relief", "setting": "[1]", "result": "About 50%"}, {"measurement": "side effect of long-term treatment", "setting": "[2]", "result": "cataracts"}]}, {"compound": "C[N+](C)(C)CCOC(N)=O", "note": "[carbachol]", "values": [{"measurement": "direct effect on interstitial cystitis", "setting": "[3]; intravesical", "result": "decreased"}]}, {"compound": "pentosan polysulfate sodium", "values": [{"measurement": "side effects", "setting": "[4]; oral Elmiron", "result": "primarily gastrointestinal discomfort, although some patients experienced hair loss"}, {"measurement": "patients treated whose symptoms improved", "setting": "[4]; oral, clinical trials, interstitial cystitis", "result": 38, "unit": "%"}]}, {"compound": "O=C(O[C@H]1C[C@H]2CC[C@@H](C1)[N+]21CCCC1)C(O)(c1ccccc1)c1ccccc1", "note": "[trospium chloride]", "values": [{"measurement": "effect of intravesical trospium after pre treatment of capsaicin or resiniferatoxin", "setting": "[3]; intravesical", "result": "not blocked"}, {"measurement": "direct effect on interstitial cystitis", "setting": "[3]; intravesical", "result": "no direct effect"}, {"measurement": "effect on the inhibitory effect of carbachol", "setting": "[3]; low dose of trospium", "result": "completely blocked"}, {"measurement": "urge, frequency and incontinence episodes", "setting": "[5]; 1.6 mg per day, eight months, incontinence", "result": "significant reduction"}, {"measurement": "pain when attempting to urinate", "setting": "[5]; 2.0 mg per day, six weeks, urgency, frequency, pain", "result": "no longer experiences pain"}, {"measurement": "metabolism", "setting": "[6]; in vivo", "result": "minimally metabolized"}, {"measurement": "protein binding", "setting": "[6]; in vivo", "result": "not highly protein-bound"}, {"measurement": "plasma half-life", "setting": "[6]; oral 20 mg tablets", "result": "about 20 hrs"}, {"measurement": "excreted through the feces", "setting": "[6]; oral", "result": 85.2, "unit": "%"}, {"measurement": "excreted through urine (tubular secretion)", "setting": "[6]; oral", "result": 5.8, "unit": "%"}, {"measurement": "recognized side effects", "setting": "[6]; oral", "result": "dry mouth, constipation, headache urinary retention and dry eyes"}, {"measurement": "absorption into the systemic circulation", "setting": "[7]", "result": "little or no absorption"}, {"measurement": "acetic-acid induced bladder overactivity", "setting": "[8]", "result": "significantly suppressed"}, {"measurement": "bladder contractions during voiding", "setting": "[8]", "result": "without affecting"}]}]}
